# Key:
# [1] = target: purified recombinant human HDAC-1 (Homo sapiens, UniProt Q13547); experiment: HDAC-1 enzymatic inhibition (AMC fluorogenic peptide deacetylation); assay type: biochemical; settings: up to
# Procedure: (§1) The effect of compounds on the enzymatic activity of purified recombinant human HDAC-1, -2, -3, -6, and -8 activity and of purified rat liver HDAC was examined by measuring the deacetylation of synthetic peptides in various preparations of HDACs. HDAC assays were performed using a two-step enzymatic reaction where enzyme activity is correlated to the release of […] (AMC). AMC fluorescence is measured in a fluorescent plate reading using λex380 nm and λen440 nm.
# (§2) The reaction was allowed to proceed for 40 min at 37° C., after which developer solution (0.5% trypsin, 10 μM trichostatin A (TSA)) was added to obtain a final concentration of 0.1% trypsin, 2 μM TSA. After 30 minutes at room temperature, the amount of free fluorogenic AMC was measured as described above.
# purified rat liver HDAC = purified rat liver HDAC inhibition; assay type: biochemical; settings: relative to compound 17
# Procedure: as §1, §2
# RXR = experiment: RXR-mediated transcription, RXRE luciferase reporter in MCF7 cells; assay type: cell-based
# Description: The effect of various compounds of the invention on RAR-mediated transcription in MCF7 breast cancer cells was examined by measuring their effect on the transcription of a luciferase reporter gene under the control of a TK promoter placed downstream of a RAR response element. In addition, the effect of the compounds on the closely related RXR-mediated transcription was examined by measuring their effect on the transcription of a luciferase reporter gene under the control of a TK promoter placed downstream of a RXR response element.
# Typically, 10,000 cells were plated in 96 wells plates in phenol red-free RPMI medium supplemented with 10% charcoal-stripped Fetal Bovine Serum. After 24 hours, cells were transfected with 0.1 μg of luciferase reporter plasmid and 0.01 μg of a reporter plasmid expressing renilla luciferase (RLuc) gene under the control of a SV40 promoter, using Fugene 6 transfection reagent (0.5 μl/well Promega Corporation). Cells were treated in triplicate with compounds or vehicle (DMSO) for 24 hours. Luciferase and renilla luciferase activities were measured using Dual-Glo reagent (Promega Corporation). Luciferase activity was normalized in each well for renilla activity.
# [2] = tested on: BE-2C neuroblastoma cells; experiment: cytotoxicity, cell survival (CellTiterGlo) in BE-2C; assay type: cell-based; settings: BE-2C cells
# Procedure: (§3) The cytotoxicity of compounds was examined and directly compared to compound 17, by measuring cell survival of clonal tumor cell lines IMR-32, BE2C (neuroblastoma), as well as MDA-MB-231, BT20, HCC-38 (Basal) and MCF7 (luminal) breast cancer cells (ATCC). Cells were cultured in phenol red-free RPMI medium supplemented with 10% FBS and 1 mM Ala-Glu. Typically, 10,000-20,000 cells/well were plated in a 96 well plate (Costar 3197). Cells were exposed to compounds or vehicle (1% DMSO final). Cells were maintained in the presence of compound for four or five days. Media and compounds were renewed every 48 hours. Cell survival was measured using the luminescence CellTiterGlo kit (Promega Corporation) and expressed as relative light unit as fold over DMSO.
# [3] = tested on: MDA-MB-231 breast cancer cells; experiment: cytotoxicity, cell survival (CellTiterGlo) in MDA-MB-231; assay type: cell-based; settings: MDA-MB-231 cells
# Procedure: as §3
# Lys382 acetylated p53 = experiment: intracellular acetylation of p53 in IMR-32 cells (western blot); assay type: cell-based; settings: 1 μM or 5 μM, 16 hours
# Procedure: The effect of certain compounds on intracellular acetylation of target proteins was tested in high risk neuroblastoma cells, BE-2C and IMR-32 cells.
# IMR32 cells were grown to confluence in phenol-red-free RPMI media supplemented with 10% es grade FBS and 2.5 mM Ala-Glu. Cells were treated with DMSO or 1 μM or 5 μM compound 13 in DMSO for 16 hours. Protein extracts were prepared in RIPA buffer in the presence of protease and phosphatase inhibitors. Proteins were separated on a 4-20% gel by PAGE and transferred to a nitrocellulose membrane.
# Beta actin, total and Lys382 acetylated p53, and Lys40 acetylated alpha, and total tubulin were detected using antibodies (Cell Signaling #8557, #2524 #2525, #12152 and #2144 respectively) using manufacturer recommended conditions.
# C2Cl2 cells = experiment: myoblast fusion in long term C2Cl2 cultures (MHC immunocytochemistry); assay type: cell-based; settings: long-term culture, suboptimal RPMI media with 2% horse serum
# Procedure: The effect of compounds on myoblast fusion was examined in C2Cl2 cells maintained in RPMI media supplemented with 2% horse serum. C2Cl2 myoblastic cells where purchased from the American Type Culture Collection (ATCC) and maintained undifferentiated in RPMI media (Corning) supplemented with 2 mM L-Alanine-L-Glutamine (ATCC) and 1 mM pyruvate (Corning). Undifferentiated cells where maintained below 70% confluence. For long term cultures and compound treatment, cells where plated at high density CellBIND Culture Dishes (corning 3294, 3296, 3337) and in RPMI supplemented with 2% Horse Serum (Gibco) and 2 mM L-Alanine-L-Glutamine (ATCC) and 1 mM pyruvate (Corning). Compounds were dissolved in DMSO at 1000 time the final concentration and diluted 1-in-1000 in the media covering the cells. Media and compounds were changed daily. For immunocytochemistry, cells were fixed in 2% PFA in HBSS for 10 minutes and left in HBSS at 4° under humidified atmosphere and processed for immunocytochemistry. For myosin heavy chain detection (MHC), cells were first incubated in 100 ul-1 ml 0.15 M Glycine in DPBS for 10 minutes, rinse with DPBS. 100 ul-1 ml 0.5% Triton-X in DPBS was added for 10 minutes, rinsed with DPBS, and followed by incubation with 100 ul blocking agent (10% goat serum in DPBS) for 30 min at room temperature. MF20 primary antibody in 10% goat serum in DPBS was added at 1/60 dilution for 30 min at room temperature and rinsed three times with 100 ul DPBS. IgG2b goat anti mouse secondary antibody (Jackson Immuno-Research) was added at 1:1000 in 10% goat serum in DPBS for exactly 30 min at room temperature then rinsed 3 times with 100 ul DPBS. A final rinse in H2O was performed and cells were covered with two drops of Elvanol and cover gently with cover slip and allowed to dry in the dark for 24-48 hours.
# C2Cl2 myoblasts = experiment: myotube fusion and degeneration in differentiated C2Cl2 cells left in exhausted media; assay type: cell-based; settings: 200 nM pre-treatment
# Procedure: C2Cl2 myoblasts were seeded at 100,000 in 30 mm plate in growth medium (Phenol red-free RMPI containing 10% FBS, Sodium pyruvate and Ala-Glu), and “pre-treated” with DMSO or 200 nM of compounds 13 or 17. At confluence cells were shifted to differentiation media (high glucose DMEM, +0.2% HS+1× Insulin/Transferrin/Selenium (Life Tech 41400-045)+Glutamine, without Pyruvate). Fully differentiated C2Cl2-derived myotubes were left in culture without media renewal for 8 days followed by media renewal and microscopic examination.
# aqueous solubility = assay type: physicochemical
# purified recombinant human HDAC-1, sequence (Q13547 whole entry): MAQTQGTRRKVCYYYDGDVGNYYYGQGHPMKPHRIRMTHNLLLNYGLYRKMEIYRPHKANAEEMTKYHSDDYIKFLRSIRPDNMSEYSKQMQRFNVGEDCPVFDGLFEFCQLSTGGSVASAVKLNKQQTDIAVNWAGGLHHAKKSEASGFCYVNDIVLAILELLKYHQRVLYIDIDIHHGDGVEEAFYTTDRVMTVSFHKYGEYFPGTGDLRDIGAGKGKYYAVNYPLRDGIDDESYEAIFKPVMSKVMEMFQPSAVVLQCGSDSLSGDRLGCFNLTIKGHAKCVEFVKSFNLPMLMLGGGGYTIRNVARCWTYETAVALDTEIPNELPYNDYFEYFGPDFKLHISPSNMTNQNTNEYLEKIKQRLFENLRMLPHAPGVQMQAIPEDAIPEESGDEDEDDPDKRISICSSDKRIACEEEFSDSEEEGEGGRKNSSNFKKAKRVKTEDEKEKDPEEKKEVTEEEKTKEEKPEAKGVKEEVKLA
smiles,measurement,setting,value
CC1(C)CCC(C)(C)c2cc(-c3cc4cc(C(=O)NO)ccc4[nH]3)ccc21 [Compound 13],maximal inhibition of HDAC-1 activity,[1],~50%
same,times more potent than compound 17 in inhibition of purified rat hepatic HDAC,purified rat liver HDAC,seventy
same,transcriptional activation of RXR / RXRE-promoter,RXR,none
same,"cytotoxic potency compared with compound 17, SAHA, Ricolinistat",[2],"more potent than compound 17, SAHA or Ricolinistat"
same,"cytotoxic potency compared with compound 17, SAHA, Ricolinistat",[3],"more potent than compound 17, SAHA or Ricolinistat"
same,lysine acetylated p53 level,Lys382 acetylated p53,pronounced accumulation of lysine acetylated p53
same,fusion of single cells into multinucleated C2Cl2 myotubes,C2Cl2 cells,enhances the fusion
same,cellular fusion after 72 hours differentiation versus DMSO,C2Cl2 myoblasts,extensive cellular fusion
same,myotube structural atrophy in exhausted media for over 8 days,C2Cl2 myoblasts,very little structural alteration
same,aqueous solubility,aqueous solubility,improved

# Source: patent US10752591B2, “18-20 member bi-polycyclic compounds” (Haro Pharmaceutical Inc., priority 2014, dated 2020)
